Biological target: T1, BACE1 (Homo sapiens, UniProt P56817)
T1 construct: endogenous in cells; host or cells: HEK293 APP cells
Assay: Cellular Aβ-lowering assay (Abeta 40 AlphaLISA, HEK293 APP cells)
Type: cell-based
Settings: 18-20 hrs incubation, Aβ40 in culture supernatant, read-out: BACE1 cell act. Aβ40 IC50
Experimental: Cellular Aβ-lowering assay:
The Abeta 40 AlphaLISA Assay can be used. The HEK293 APP cells were seeded in 96 well Microtiter plates in cell culture medium (Iscove's, plus 10% (v/v) fetal bovine serum, penicillin/streptomycin) to about 80% confluency and the compounds were added at a 3× concentration in ⅓ volume of culture medium (final DMSO concentration was kept at 1% v/v). After 18-20 hrs incubation at 37° C. and 5% CO2 in a humidified incubator, the culture supernatants were harvested for the determination of AP 40 concentrations using Perkin-Elmer Human Amyloid beta 1-40 (high specificity) Kit (Cat#AL275C).
In a Perkin-Elmer White Optiplate-384 (Cat#6007290), 2 ul culture supernatants were combined with 2 μl of a 10× AlphaLISA Anti-hAβ Acceptor beads+Biotinylated Antibody Anti-Aβ 1-40 Mix ([…]/5 nM). After 1 hour room temperature incubation, 16 μl of a 1.25× preparation of Streptavidin (SA) Donor beads (25 μg/mL) were added and incubated for 30 minutes in the Dark. Light Emission at 615 nm was then recorded using EnVision-Alpha Reader. Levels of Aβ 40 in the culture supernatants were calculated as percentage of maximum signal (cells treated with 1% DMSO without inhibitor). The IC50 values were calculated using the Excel XLfit software.

T1 sequence (P56817 46-501): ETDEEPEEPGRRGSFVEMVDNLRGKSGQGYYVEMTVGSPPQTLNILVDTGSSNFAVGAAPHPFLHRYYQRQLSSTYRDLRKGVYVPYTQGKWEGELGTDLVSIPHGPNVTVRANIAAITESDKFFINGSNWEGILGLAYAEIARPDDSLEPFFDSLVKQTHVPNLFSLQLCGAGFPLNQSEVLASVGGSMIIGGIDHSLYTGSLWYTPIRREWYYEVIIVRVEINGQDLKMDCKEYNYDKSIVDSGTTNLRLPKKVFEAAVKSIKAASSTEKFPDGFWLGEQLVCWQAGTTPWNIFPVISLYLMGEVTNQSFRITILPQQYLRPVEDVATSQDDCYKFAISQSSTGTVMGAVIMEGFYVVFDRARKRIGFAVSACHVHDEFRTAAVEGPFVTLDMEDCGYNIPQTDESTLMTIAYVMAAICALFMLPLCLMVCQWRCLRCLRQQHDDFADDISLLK

SMILES	IC50
CC1(C)C(N)=N[C@](C)(c2nc(NC(=O)c3cnc(OCC(F)F)cn3)ccc2F)[C@H]2CC(F)(F)CN=[S@@]21=O [Example 46AA, N-(6-((4aR,5R,9R)-7-amino-3,3-difluoro-5,8,8-trimethyl-9-oxido-2,3,4,4a,5,8-hexahydro-[1,4]thiazino[2,1-f][1,2]thiazin-5-yl)-5-fluoropyridin-2-yl)-5-(2,2-difluoroethoxy)pyrazine-2-carboxamide]	144 nM
Cc1cc(Cl)cnc1C(=O)Nc1ccc(F)c([C@@]2(C)N=C(N)C(C)(C)[S@]3(=O)=NCC[C@H]23)n1 [Example 12BA, N-(6-((3aR,4R,8S)-6-amino-4,7,7-trimethyl-8-oxido-3,3a,4,7-tetrahydro-2H-isothiazolo[1,5-a][1,4]thiazin-4-yl)-5-fluoropyridin-2-yl)-5-chloro-3-methylpicolinamide]	24.2 nM
CC1(C)C(N)=N[C@](C)(c2nc(NC(=O)c3nn(C(F)F)cc3Cl)ccc2F)[C@@H]2CCN=[S@@]21=O [Example 51AB, N-(6-((3aS,4R,8R)-6-amino-4,7,7-trimethyl-8-oxido-3,3a,4,7-tetrahydro-2H-isothiazolo[1,5-a][1,4]thiazin-4-yl)-5-fluoropyridin-2-yl)-4-chloro-1-(difluoromethyl)-1H-pyrazole-3-carboxamide]	< 10 nM
CC1(C)C(N)=N[C@](C)(c2nc(NC(=O)c3ccc(C(=O)O)cn3)ccc2F)[C@H]2CC(F)(F)CN=[S@@]21=O [Example 44AA, 6-((6-((4aR,5R,9R)-7-amino-3,3-difluoro-5,8,8-trimethyl-9-oxido-2,3,4,4a,5,8-hexahydro-[1,4]thiazino[2,1-f][1,2]thiazin-5-yl)-5-fluoropyridin-2-yl)carbamoyl)nicotinic acid]	> 40 nM
Cc1cc(F)cnc1C(=O)Nc1ccc(F)c([C@@]2(C)N=C(N)C(C)(C)[S@]3(=O)=NCC[C@H]23)n1 [Example 10BA, N-(6-((3aR,4R,8S)-6-amino-4,7,7-trimethyl-8-oxido-3,3a,4,7-tetrahydro-2H-isothiazolo[1,5-a][1,4]thiazin-4-yl)-5-fluoropyridin-2-yl)-5-fluoro-3-methylpicolinamide]	420 nM
CC1(C)C(N)=N[C@](C)(c2nc(NC(=O)c3ncc(F)cc3Cl)ccc2F)[C@H]2CCN=[S@]21=O [Example 11BA, N-(6-((3aR,4R,8S)-6-amino-4,7,7-trimethyl-8-oxido-3,3a,4,7-tetrahydro-2H-isothiazolo[1,5-a][1,4]thiazin-4-yl)-5-fluoropyridin-2-yl)-3-chloro-5-fluoropicolinamide]	117 nM
COc1cnc(C(=O)Nc2ccc(F)c([C@@]3(C)N=C(N)C(C)(C)[S@@]4(=O)=NCC(F)(F)C[C@H]34)n2)cn1 [Example 38AA, N-(6-((4aR,5R,9R)-7-amino-3,3-difluoro-5,8,8-trimethyl-9-oxido-2,3,4,4a,5,8-hexahydro-[1,4]thiazino[2,1-f][1,2]thiazin-5-yl)-5-fluoropyridin-2-yl)-5-methoxypyrazine-2-carboxamide]	295 nM
Cc1cc(F)cnc1C(=O)Nc1ccc(F)c([C@@]2(C)N=C(N)C(C)(C)[S@@]3(=O)=NCC(F)(F)C[C@H]23)n1 [Example 39AA, N-(6-((4aR,5R,9R)-7-amino-3,3-difluoro-5,8,8-trimethyl-9-oxido-2,3,4,4a,5,8-hexahydro-[1,4]thiazino[2,1-f][1,2]thiazin-5-yl)-5-fluoropyridin-2-yl)-5-fluoro-3-methylpicolinamide]	114 nM
CC1(C)C(N)=N[C@](C)(c2nc(NC(=O)c3ccc(C#N)cc3Cl)ccc2F)[C@@H]2CCN=[S@@]21=O [Example 31AB, N-(6-((3aS,4R,8R)-6-amino-4,7,7-trimethyl-8-oxido-3,3a,4,7-tetrahydro-2H-isothiazolo[1,5-a][1,4]thiazin-4-yl)-5-fluoropyridin-2-yl)-2-chloro-4-cyanobenzamide]	34 nM

— US9540397B2, “BACE1 inhibitors” (Hoffmann-La Roche Inc., priority 2014, dated 2017)
